{"source": "patent US8414989B2", "about": "“Cyclodextrin compositions, articles, and methods” (Cellresin Technologies, LLC, priority 2011, dated 2013)", "format_in_all_cases": "physicochemical", "key": {"[1]": {"test": "Example 5: 1-MCP headspace release versus wt-% 1-MCP/c/α-CD and time", "settings": "5 cm x 10 cm, 250 mL bottle, water injected, average", "method": "Using a razor blade, six 5 cm×10 cm rectangles were cut from the coated portions of 20 cm by 20 cm sheets prepared as in Example 3 and having 1.0 wt-%, 2.0 wt-% and 4.0 wt-% 1-MCP/c/α-CD, and the coated rectangles were cured according to the technique of Example 2. The rectangles were individually placed in 250 mL serum bottles. The bottles were sealed with TEFLON® faced silicone septa. Then […] of deionized water was injected into each bottle. […] Bottle headspace was analyzed at 4, 8, 24 and 48 hours after the injection of water, using the technique of Example 3. The results are provided in Table 4 and FIG. 4 and give the average headspace concentration and standard deviation for the different wt-% 1-MCP/c/α-CD coatings as a function of time."}, "[2]": {"test": "Example 9: 1-MCP headspace release from UV-cured ink coated on PET film", "settings": "4 wt-% 1-MCP/c/α-CD UV ink on PET, 200 μL water", "method": "ImTech UVBLK Series 912 cartridges were obtained from ImTech Inc. of Corvallis, Oreg. About 40 g of black ink was removed from the cartridge in which the ink was supplied. The ink was dried overnight in a closed container with 3 A molecular sieves to remove residual water contained in the ink. Then 17.5 g of the dried ink was transferred to a 70 mL roller mill jar filled with 50 g of 3 mm glass beads to which 0.875 g of 1-MCP/c/α-CD was added to the UV ink. The jar was sealed and rotated on a roller mill at 140 rpm for four hours. At the end of four hours of rolling to disperse the 1-MCP/c/α-CD, an additional 4.375 g of dry UV ink was added making a 4 wt-% 1-MCP/c/α-CD containing ink. Then the ink was decanted from the glass beads.\nA rubber ink roller was used to coat a discontinuous, thin (nominally 3 μm), but uniform UV ink coating onto a 10 cm by 20 cm section of PET film (120 microns thick, obtained from the 3M Company of St. Paul, Minn.) in the manner described in Example 2. UV ink coated rectangles were passed by hand about 10 cm beneath a medium pressure mercury arc lamp operating at 79 watts per cm for 1.5 seconds exposure to the lamp. The cured sample was allowed to sit on a laboratory bench overnight ink side down.\nA paper cutter was used to cut two samples, 20 cm^2 and 81 cm^2, from the cured ink coated PET film sheet. The samples were individually placed in 250 mL serum bottles. The bottles were then sealed with TEFLON® faced silicone septa. Then 200 μL of deionized water was injected into the bottle. […] After the injection of water into the bottle, 1-MCP was measured in the headspace using the analytical technique employed in Example 3."}, "[3]": {"test": "Example 11: 1-MCP headspace release from UV coating on polyethylene coated paperboard", "settings": "UV coating with 1-MCP/c/α-CD on PE coated paperboard, 5 cm x 5 cm, 250 mL jar, 200 μL water, average", "method": "A 20 mL bottle was charged with 9.6 g of UV curable coating formulation (VP 10169/60 MF-2NE, obtained from Verga GmbH of Aschau am Inn, Germany). Then 0.4 g of 1-MCP/c/α-CD (4.7% 1-MCP, obtained from AgroFresh of […], Pa.) was added to the bottle. The bottle was firmly capped and the components mixed by shaking the bottle by hand until the contents appeared to be uniformly dispersed, providing a UV curable mixture.\nA polyethylene coated paperboard was prepared by heat laminating a 30 μm thick polyethylene film to a 20 cm×20 cm section of 600 μm thick solid bleached sulfate (SBS) paperboard (obtained from Graphic Packaging International of_) using a heated vacuum press. A rubber ink roller was used to deliver a thin (nominally 0.3 μm) coating of the UV curable mixture to the laboratory prepared polyethylene coated paperboard, using the technique of Example 2. A paper cutter was used to cut a 20 cm by 10 cm rectangle of the coated portion of the board. The coated rectangle was passed by hand about 10 cm beneath a medium pressure mercury arc lamp operating at 79 watts per cm. After 1.5 seconds exposure to the lamp, the sample was removed. The cured sample was allowed to sit on a laboratory bench overnight, coating side down.\nAfter curing, 5 cm by 5 cm sections were cut from the 20 cm by 10 cm rectangles. Each section was individually placed into a 250 mL jar (tall clear WM SEPTA-JAR™, Fisher Scientific P/N 05-719-452; obtained from Fisher Scientific of Waltham, Mass.) equipped with a TEFLON™ faced septum (Fisher Scientific P/N 14-965-84). Each jar was injected with 200 μL of deionized water. […] Jar headspace was analyzed for 1-MCP at […] time periods (0.17, 0.5, 1, 2, 4 and 7 hours) after the injection of water, using the analytical technique employed in Example 3. The results exemplify that greater amounts of 1-MCP were released into the headspace from the UV coated substrate with increasing time."}}, "data": [{"compound": "CC1=CC1", "note": "[1-MCP, 1-methylcyclopropene]", "values": [{"measurement": "1-MCP in Headspace", "setting": "[1]; 1 wt-% 1-MCP/c/α-CD coated, 4 hours", "value": 0.96, "unit": "ppm-v/v"}, {"measurement": "1-MCP in Headspace", "setting": "[1]; 1 wt-% 1-MCP/c/α-CD coated, 8 hours", "value": 2.0, "unit": "ppm-v/v"}, {"measurement": "1-MCP in Headspace", "setting": "[1]; 1 wt-% 1-MCP/c/α-CD coated, 24 hours", "value": 3.6, "unit": "ppm-v/v"}, {"measurement": "1-MCP in Headspace", "setting": "[1]; 1 wt-% 1-MCP/c/α-CD coated, 48 hours", "value": 4.0, "unit": "ppm-v/v"}, {"measurement": "1-MCP in Headspace", "setting": "[1]; 2 wt-% 1-MCP/c/α-CD coated, 4 hours", "value": 3.5, "unit": "ppm-v/v"}, {"measurement": "1-MCP in Headspace", "setting": "[1]; 2 wt-% 1-MCP/c/α-CD coated, 8 hours", "value": 7.8, "unit": "ppm-v/v"}, {"measurement": "1-MCP in Headspace", "setting": "[1]; 2 wt-% 1-MCP/c/α-CD coated, 24 hours", "value": 17.8, "unit": "ppm-v/v"}, {"measurement": "1-MCP in Headspace", "setting": "[1]; 2 wt-% 1-MCP/c/α-CD coated, 48 hours", "value": 21.2, "unit": "ppm-v/v"}, {"measurement": "1-MCP in Headspace", "setting": "[1]; 4 wt-% 1-MCP/c/α-CD coated, 4 hours", "value": 7.5, "unit": "ppm-v/v"}, {"measurement": "1-MCP in Headspace", "setting": "[1]; 4 wt-% 1-MCP/c/α-CD coated, 8 hours", "value": 13.5, "unit": "ppm-v/v"}, {"measurement": "1-MCP in Headspace", "setting": "[1]; 4 wt-% 1-MCP/c/α-CD coated, 24 hours", "value": 24.0, "unit": "ppm-v/v"}, {"measurement": "1-MCP in Headspace", "setting": "[1]; 4 wt-% 1-MCP/c/α-CD coated, 48 hours", "value": 28.0, "unit": "ppm-v/v"}, {"measurement": "Headspace concentration of 1-MCP", "setting": "[2]; 20 cm^2, 250 mL bottle, 0.5 hours", "value": "<0.01 ppm (v/v)"}, {"measurement": "Headspace concentration of 1-MCP", "setting": "[2]; 20 cm^2, 250 mL bottle, 1 hour", "value": "<0.01 ppm (v/v)"}, {"measurement": "Headspace concentration of 1-MCP", "setting": "[2]; 20 cm^2, 250 mL bottle, 2 hours", "value": "0.01 ppm (v/v)"}, {"measurement": "Headspace concentration of 1-MCP", "setting": "[2]; 20 cm^2, 250 mL bottle, 4 hours", "value": "0.04 ppm (v/v)"}, {"measurement": "Headspace concentration of 1-MCP", "setting": "[2]; 20 cm^2, 250 mL bottle, 8 hours", "value": "0.05 ppm (v/v)"}, {"measurement": "Headspace concentration of 1-MCP", "setting": "[2]; 20 cm^2, 250 mL bottle, 27 hours", "value": "0.09 ppm (v/v)"}, {"measurement": "Headspace concentration of 1-MCP", "setting": "[2]; 20 cm^2, 250 mL bottle, 170 hours", "value": "0.76 ppm (v/v)"}, {"measurement": "Headspace concentration of 1-MCP", "setting": "[2]; 81 cm^2, 250 mL bottle, 0.5 hours", "value": "<0.01 ppm (v/v)"}, {"measurement": "Headspace concentration of 1-MCP", "setting": "[2]; 81 cm^2, 250 mL bottle, 1 hour", "value": "0.05 ppm (v/v)"}, {"measurement": "Headspace concentration of 1-MCP", "setting": "[2]; 81 cm^2, 250 mL bottle, 2 hours", "value": "0.18 ppm (v/v)"}, {"measurement": "Headspace concentration of 1-MCP", "setting": "[2]; 81 cm^2, 250 mL bottle, 21 hours", "value": "0.51 ppm (v/v)"}, {"measurement": "Headspace concentration of 1-MCP", "setting": "[2]; 81 cm^2, 250 mL bottle, 48 hours", "value": "0.60 ppm (v/v)"}, {"measurement": "Headspace concentration of 1-MCP", "setting": "[3]; 0.17 hours", "value": "0.16 ppm (v/v)"}, {"measurement": "Headspace concentration of 1-MCP", "setting": "[3]; 0.5 hours", "value": "0.63 ppm (v/v)"}, {"measurement": "Headspace concentration of 1-MCP", "setting": "[3]; 1 hour", "value": "1.6 ppm (v/v)"}, {"measurement": "Headspace concentration of 1-MCP", "setting": "[3]; 2 hours", "value": "3.6 ppm (v/v)"}, {"measurement": "Headspace concentration of 1-MCP", "setting": "[3]; 4 hours", "value": "7.3 ppm (v/v)"}, {"measurement": "Headspace concentration of 1-MCP", "setting": "[3]; 7 hours", "value": "12.5 ppm (v/v)"}]}]}
